The text below walks through data of patent US7947717B2 (priority 2008, dated 2011).

Molecules are shown by their SMILES. Like-named read-outs stand apart in the source and are kept apart here.

For orientation: IC50 means the midpoint of a concentration-inhibition curve. For orientation: kinetic solubility means the concentration staying in solution when a stock, usually in DMSO, is diluted into the medium. As usually defined, the half-life is the time in which the quantity being followed falls by half. A low value points to fast loss. The inhibition is the percentage by which the read-out fell short of the control. A low value points to little suppression. A word on the Ki: it is the equilibrium dissociation constant of an inhibitor or competing ligand from its target.

One data set addresses lethal factor (LF) (Bacillus anthracis, UniProt P15917). Description: biochemical. Type of data set: biochemical.
The next data set concerns HepG2 cells. Particulars: human.
The conditions of data set [1]: rat.
The nature of the next data set: physchem. Conditions: 23 °C, pH 7.4, aqueous with cosolvent or surfactant or cyclodextrin, kinetic from dmso stock.
Data set [2] is described as follows: in vitro. Conditions: rat, hepatocytes, pH 7.4.
A short description of data set [3]: in vitro. Conditions: s9.
Another data set deals with hERG (Homo sapiens, UniProt Q12809). The data set is described as follows: in vitro.
hERG, sequence (Q12809 whole entry): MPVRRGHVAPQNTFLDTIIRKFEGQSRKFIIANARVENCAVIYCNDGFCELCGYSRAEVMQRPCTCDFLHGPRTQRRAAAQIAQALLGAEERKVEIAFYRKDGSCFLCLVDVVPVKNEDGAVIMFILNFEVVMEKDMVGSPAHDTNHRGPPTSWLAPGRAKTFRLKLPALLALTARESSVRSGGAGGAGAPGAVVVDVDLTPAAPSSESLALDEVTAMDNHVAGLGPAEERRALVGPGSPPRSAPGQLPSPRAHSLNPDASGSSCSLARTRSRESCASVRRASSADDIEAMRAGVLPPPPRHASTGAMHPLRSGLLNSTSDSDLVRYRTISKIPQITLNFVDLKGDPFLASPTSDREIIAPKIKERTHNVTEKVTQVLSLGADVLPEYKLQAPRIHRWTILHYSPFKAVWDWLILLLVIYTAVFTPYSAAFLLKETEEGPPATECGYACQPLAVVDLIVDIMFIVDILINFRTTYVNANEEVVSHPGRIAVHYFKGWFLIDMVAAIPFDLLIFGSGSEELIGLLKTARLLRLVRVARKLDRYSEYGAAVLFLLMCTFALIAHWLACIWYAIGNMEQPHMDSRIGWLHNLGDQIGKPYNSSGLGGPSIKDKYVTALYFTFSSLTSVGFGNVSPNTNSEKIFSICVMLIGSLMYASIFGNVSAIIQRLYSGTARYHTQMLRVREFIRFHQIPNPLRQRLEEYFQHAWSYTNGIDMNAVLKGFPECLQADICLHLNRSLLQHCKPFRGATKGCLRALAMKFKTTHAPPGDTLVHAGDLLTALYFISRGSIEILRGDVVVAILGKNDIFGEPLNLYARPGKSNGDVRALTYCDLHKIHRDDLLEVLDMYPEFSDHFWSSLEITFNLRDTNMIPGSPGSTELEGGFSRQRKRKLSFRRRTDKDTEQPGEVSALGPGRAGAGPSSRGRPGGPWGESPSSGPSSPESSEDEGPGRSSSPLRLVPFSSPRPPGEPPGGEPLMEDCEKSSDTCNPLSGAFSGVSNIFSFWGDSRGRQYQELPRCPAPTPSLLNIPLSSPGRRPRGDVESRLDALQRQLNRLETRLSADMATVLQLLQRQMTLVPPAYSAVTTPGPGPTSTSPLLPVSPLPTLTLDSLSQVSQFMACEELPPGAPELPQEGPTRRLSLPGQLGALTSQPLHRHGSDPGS
A further data set addresses human CYP 2C19 (Homo sapiens, UniProt P33261). Description: biochemical.
In the next data set the target is human CYP2D6 (Homo sapiens, UniProt P10635). Description: biochemical.
human CYP2D6, sequence (P10635 whole entry): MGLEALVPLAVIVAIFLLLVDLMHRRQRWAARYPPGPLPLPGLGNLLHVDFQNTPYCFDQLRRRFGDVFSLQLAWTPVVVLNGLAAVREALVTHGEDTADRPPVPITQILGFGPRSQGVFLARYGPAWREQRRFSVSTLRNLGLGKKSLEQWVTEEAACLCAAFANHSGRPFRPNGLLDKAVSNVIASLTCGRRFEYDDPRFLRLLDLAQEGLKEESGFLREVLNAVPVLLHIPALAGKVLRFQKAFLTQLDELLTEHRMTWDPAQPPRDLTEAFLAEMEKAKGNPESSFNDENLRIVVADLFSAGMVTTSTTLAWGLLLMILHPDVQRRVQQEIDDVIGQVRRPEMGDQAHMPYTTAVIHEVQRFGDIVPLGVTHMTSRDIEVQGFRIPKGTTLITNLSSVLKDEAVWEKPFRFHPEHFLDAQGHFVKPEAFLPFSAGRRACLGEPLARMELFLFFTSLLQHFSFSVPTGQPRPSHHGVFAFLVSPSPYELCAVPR
For another data set, the target named is T1, human CYP1A2 (Homo sapiens, UniProt P05177).
T1 sequence (P05177 1-516): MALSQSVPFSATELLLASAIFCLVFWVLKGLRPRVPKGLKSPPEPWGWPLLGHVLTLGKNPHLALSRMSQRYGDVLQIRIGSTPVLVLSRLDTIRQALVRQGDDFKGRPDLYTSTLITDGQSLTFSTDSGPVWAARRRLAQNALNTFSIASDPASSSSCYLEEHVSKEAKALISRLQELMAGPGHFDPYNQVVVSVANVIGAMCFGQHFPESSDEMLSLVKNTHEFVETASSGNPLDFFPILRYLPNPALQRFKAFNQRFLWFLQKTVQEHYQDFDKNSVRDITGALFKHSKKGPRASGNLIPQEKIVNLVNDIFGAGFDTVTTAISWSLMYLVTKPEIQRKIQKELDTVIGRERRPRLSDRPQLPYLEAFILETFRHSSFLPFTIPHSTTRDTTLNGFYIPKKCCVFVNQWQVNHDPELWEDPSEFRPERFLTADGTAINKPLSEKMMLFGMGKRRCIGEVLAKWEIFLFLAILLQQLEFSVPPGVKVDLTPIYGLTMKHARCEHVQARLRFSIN
Description: biochemical.

The target in a further data set is human CYP2C9 (Homo sapiens, UniProt P11712). The data set is described as follows: biochemical.
human CYP2C9, sequence (P11712 whole entry): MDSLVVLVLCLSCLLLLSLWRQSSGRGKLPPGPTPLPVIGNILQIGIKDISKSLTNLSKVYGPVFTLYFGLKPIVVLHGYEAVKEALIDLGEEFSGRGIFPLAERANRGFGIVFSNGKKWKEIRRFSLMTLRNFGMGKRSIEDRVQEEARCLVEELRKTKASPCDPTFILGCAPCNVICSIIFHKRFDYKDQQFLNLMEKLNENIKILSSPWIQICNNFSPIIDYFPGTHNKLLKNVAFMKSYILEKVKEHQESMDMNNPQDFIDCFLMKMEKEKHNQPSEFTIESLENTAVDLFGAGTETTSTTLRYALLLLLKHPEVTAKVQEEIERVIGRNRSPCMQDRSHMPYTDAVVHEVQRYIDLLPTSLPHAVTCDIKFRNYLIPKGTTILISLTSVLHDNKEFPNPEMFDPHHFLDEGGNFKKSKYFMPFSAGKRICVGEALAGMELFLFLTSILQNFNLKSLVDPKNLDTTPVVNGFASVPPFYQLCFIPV
The next data set concerns the target BoNT A (Clostridium botulinum, UniProt P0DPI0). The data set is described as follows: biochemical.
The next data set addresses T2, MMP-2 (Homo sapiens, UniProt P08253).
T2 construct: purchased Anaspec, Inc. 71151/71155
T2 sequence (P08253 110-660): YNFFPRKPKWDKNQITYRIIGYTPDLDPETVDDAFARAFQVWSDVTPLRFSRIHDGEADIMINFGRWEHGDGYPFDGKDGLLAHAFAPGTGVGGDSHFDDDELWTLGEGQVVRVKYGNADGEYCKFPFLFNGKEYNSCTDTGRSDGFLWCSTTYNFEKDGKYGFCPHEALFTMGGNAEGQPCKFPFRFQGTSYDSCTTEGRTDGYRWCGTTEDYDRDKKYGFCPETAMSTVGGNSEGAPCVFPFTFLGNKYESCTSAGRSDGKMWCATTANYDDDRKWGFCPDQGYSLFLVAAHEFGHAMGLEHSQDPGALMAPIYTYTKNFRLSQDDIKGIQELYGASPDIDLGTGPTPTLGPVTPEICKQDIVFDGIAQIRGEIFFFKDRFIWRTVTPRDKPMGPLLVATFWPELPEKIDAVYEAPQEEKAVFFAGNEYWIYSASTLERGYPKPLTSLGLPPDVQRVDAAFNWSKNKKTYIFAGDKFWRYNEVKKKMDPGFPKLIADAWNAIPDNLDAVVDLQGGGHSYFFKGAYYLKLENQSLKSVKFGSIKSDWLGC
Description: MMP-2 assay (Anaspec kit). Type of data set: biochemical.

The target in the next data set is T3, MMP-9 (Homo sapiens, UniProt P14780).
T3 construct: purchased Anaspec, Inc. 71151/71155
The data set is described as follows: MMP-9 assay (Anaspec kit). Type of data set: biochemical.

The subject of the next data set is RAW 264.7 cells. Type of data set: cell-based, Murine.
The subject of data set [4] is Bacillus anthracis Sterne spores. Further details: species or system A/J mice. Conditions: mouse, in vivo.
For data set [5] the following is noted: rat, hepatocytes.
Assay in data set [6]: not given
The source holds these as a separate data set.

The next data set has as its target human CYP3A4 (Homo sapiens, UniProt P08684). Description: biochemical.
The target of another data set is human MDR1 ABCB1/Pgp (Homo sapiens, UniProt P08183).
For a further data set, the target named is LF metalloproteinase (Bacillus anthracis, UniProt P15917). Conditions: read-out: Ki of LF metalloproteinase activity; cited from earlier work.
The mark [7] stands for this setting: read-out: IC50 (μM) of selected LF compounds (Table 7).

human CYP 2C19, sequence (P33261 whole entry): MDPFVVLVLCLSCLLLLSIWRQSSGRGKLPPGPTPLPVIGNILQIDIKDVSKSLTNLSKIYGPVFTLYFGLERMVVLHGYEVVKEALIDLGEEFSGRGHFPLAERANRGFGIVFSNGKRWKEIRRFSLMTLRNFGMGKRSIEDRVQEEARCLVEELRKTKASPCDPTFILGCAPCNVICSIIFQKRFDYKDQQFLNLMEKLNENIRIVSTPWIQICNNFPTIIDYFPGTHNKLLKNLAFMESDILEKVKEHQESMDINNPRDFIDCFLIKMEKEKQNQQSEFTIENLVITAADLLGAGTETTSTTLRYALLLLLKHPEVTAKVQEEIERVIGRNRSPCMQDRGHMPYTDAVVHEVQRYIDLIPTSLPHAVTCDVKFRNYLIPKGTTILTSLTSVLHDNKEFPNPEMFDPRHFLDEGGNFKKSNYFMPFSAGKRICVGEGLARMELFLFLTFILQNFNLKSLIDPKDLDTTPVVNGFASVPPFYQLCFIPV
lethal factor (LF), sequence (P15917 34-809 limits assumed): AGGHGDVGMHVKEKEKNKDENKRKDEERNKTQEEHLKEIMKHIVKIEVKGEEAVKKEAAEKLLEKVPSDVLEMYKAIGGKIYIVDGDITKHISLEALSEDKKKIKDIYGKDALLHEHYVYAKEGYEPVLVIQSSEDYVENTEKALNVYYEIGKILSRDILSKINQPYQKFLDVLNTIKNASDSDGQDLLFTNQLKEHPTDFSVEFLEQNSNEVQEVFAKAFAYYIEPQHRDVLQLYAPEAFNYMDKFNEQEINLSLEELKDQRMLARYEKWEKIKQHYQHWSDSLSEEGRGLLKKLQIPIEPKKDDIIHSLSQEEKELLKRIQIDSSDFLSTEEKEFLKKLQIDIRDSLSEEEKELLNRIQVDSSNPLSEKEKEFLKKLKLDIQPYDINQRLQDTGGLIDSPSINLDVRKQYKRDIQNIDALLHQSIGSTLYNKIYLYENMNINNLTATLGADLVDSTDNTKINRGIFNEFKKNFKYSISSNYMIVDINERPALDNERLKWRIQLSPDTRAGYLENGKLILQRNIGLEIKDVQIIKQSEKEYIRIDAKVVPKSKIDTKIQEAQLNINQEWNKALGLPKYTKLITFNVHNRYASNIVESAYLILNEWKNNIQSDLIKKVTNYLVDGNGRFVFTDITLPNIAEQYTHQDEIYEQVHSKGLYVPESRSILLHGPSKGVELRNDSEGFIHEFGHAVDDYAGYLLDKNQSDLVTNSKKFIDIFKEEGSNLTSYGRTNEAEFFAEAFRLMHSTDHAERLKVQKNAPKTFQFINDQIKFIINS
BoNT A, sequence (P0DPI0 whole entry, looked up): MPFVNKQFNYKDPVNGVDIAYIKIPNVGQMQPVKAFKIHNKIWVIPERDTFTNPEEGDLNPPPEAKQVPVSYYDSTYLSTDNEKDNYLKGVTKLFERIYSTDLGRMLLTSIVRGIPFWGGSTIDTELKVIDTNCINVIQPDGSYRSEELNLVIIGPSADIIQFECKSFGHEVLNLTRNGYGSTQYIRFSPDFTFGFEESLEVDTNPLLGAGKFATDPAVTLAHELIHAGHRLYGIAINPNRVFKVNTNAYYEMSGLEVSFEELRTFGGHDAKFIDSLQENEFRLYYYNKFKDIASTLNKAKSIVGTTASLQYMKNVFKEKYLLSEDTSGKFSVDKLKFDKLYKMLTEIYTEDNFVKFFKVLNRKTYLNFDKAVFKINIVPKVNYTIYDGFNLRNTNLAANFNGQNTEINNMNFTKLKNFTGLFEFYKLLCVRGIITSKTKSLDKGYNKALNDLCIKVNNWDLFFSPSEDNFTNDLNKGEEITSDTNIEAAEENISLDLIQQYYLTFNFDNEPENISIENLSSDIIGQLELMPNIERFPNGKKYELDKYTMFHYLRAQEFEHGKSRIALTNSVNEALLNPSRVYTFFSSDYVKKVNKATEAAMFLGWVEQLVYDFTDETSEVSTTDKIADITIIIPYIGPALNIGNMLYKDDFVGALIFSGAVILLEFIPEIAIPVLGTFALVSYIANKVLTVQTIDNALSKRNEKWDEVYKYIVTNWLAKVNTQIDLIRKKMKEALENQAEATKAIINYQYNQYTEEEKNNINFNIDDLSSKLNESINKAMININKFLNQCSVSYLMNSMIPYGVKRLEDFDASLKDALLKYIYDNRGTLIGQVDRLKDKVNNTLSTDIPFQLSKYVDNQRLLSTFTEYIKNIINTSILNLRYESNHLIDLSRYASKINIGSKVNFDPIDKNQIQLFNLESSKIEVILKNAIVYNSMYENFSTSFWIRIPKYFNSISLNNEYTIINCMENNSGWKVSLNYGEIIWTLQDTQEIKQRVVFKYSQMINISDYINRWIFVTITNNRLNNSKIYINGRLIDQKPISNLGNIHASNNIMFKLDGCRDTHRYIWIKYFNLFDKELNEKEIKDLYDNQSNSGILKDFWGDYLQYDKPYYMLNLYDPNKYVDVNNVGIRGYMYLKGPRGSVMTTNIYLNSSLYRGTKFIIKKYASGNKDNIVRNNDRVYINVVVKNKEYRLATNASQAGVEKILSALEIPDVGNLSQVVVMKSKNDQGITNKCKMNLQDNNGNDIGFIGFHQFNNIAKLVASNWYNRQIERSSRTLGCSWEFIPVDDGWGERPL

As to `COc1ccc(-c2ccc(/C=C3\SC(=S)N(CC(=O)O)C3=O)o2)cc1Cl` [Compound 1], the IC50 on lethal factor (LF) turned out to be 0.29 µM; at human CYP 2C19 it was 31.3 µM; at human CYP2D6, 30.5 µM; on human CYP1A2, 20.9 µM; on human CYP2C9 it was 28.3 µM. Further, the “Cytox. (c) Cytotoxicity against HepG2 cells” value (shortened to “Cytox. (c) Cytotoxicity”) in the data set with HepG2 cells is recorded as “Nontoxic up to 100 μM”. Besides, the “Plasma Stab. T = 30 min (l)” value in data set [1] is 90%. In the data set “physchem”, this compound displayed a solubility (kinetic) of under 0.01 mg/mL. Moreover, the half-life in “in vitro [2]” is 37.1 min; in “in vitro [3]” it was 128 min. In addition, the hepatocyte CLint in the data set “in vitro [2]” was found to be 21.6 µL/min/1e6 cells; in the data set “in vitro [3]” it was 5.6. The compound further gave an inhibition at 30 µM at hERG of 58%.
As for `O=C(O)CN1C(=O)/C(=C/c2cn(-c3ccc(Cl)cc3)nc2-c2ccc(Cl)cc2)SC1=S` [Compound 34, (Z)-2-(5-((1,3-bis(4-chlorophenyl)-1H-pyrazol-4-yl)methylene)-4-oxo-2-thioxothiazolidin-3-yl)acetic acid], the IC50 came to 2.95 µM at lethal factor (LF) (pH 7.4, read-out: LF IC50) and 8.18 µM against BoNT A. In addition, the “inhibition of MMP-2 (in words)” value against MMP-2 is recorded as “did not inhibit”. On MMP-9, the “inhibition of MMP-9 (in words)” value was “did not inhibit”. Moreover, the “protection of macrophages from LF/PA-induced cell death” value in the data set on RAW 264.7 cells is recorded as “protect macrophages from LF/PA-induced cell death”. In [4], the “survival compared to control group (in words, FIG. 3)” value is reported as “survived significantly better than control”.
As to `COc1ccc(-c2nn(-c3ccccc3)cc2/C=C2\SC(=S)N(CCS(=O)(=O)O)C2=O)cc1` [Compound 40, (Z)-2-(5-((3-(4-methoxyphenyl)-1-phenyl-1H-pyrazol-4-yl)methylene)-4-oxo-2-thioxothiazolidin-3-yl)ethanesulfonic acid], the IC50 is 2.04 µM on lethal factor (LF) (pH 7.4, read-out: LF IC50); over 200 µM against BoNT A; 34.5 µM against MMP-2. Also, the “protection of macrophages from LF/PA-induced cell death” value with RAW 264.7 cells is “protect macrophages from LF/PA-induced cell death”.
For `O=C(O)CN1C(=O)/C(=C/c2ccc(-c3ccc(Cl)c(Cl)c3)o2)SC1=S` [Compound 64], the “Pampa (d) permeability class” value is recorded as “Med”. In addition, at lethal factor (LF) (setting [7]), the IC50 was 0.26 µM. For the same compound, in the data set on HepG2 cells, the “Cytox. (c) Cytotoxicity” value is listed as “Nontoxic up to 100 μM”. In data set [5], the “Met. Stab. t1/2 (k)” value was “Degraded”. In [1], the “Plasma Stab. T = 30 min (l)” value is on record as 79%. The “Liver S9 Stab t1/2 (m)” value in data set [6] is “Degraded”. For the same compound, in the data set “physchem”, the kinetic solubility is under 0.01 mg/mL. This compound also gave an inhibition at 30 µM against hERG of 67%. Further, the half-inhibitory concentration (IC50) on human CYP 2C19 was determined as 36.9 µM. On human CYP2D6, this compound registered an IC50 of 47.6 µM. This compound also came in with an IC50 at human CYP1A2 of 2.79 µM. On human CYP3A4, the IC50 was over 50 µM. The IC50 on human CYP2C9 was over 50 µM.
Turning to `O=C(O)CN1C(=O)/C(=C/c2ccc(-c3cc(C(F)(F)F)ccc3Cl)o2)SC1=S` [Compound 65], the half-inhibitory concentration (IC50) on lethal factor (LF) (setting [7]) was 0.19 µM; at human MDR1 ABCB1/Pgp, over 100 µM; at human CYP 2C19 it was over 100 µM; against human CYP2D6, over 100 µM; at human CYP1A2, 20.5 µM; on human CYP2C9 it was over 100 µM. In the data set on HepG2 cells, the “Cytox. (c) Cytotoxicity” value is listed as “Nontoxic up to 100 μM”. Besides, the “Plasma Stab. T = 30 min (l)” value in data set [1] is recorded as 82%. This compound also yielded a solubility (kinetic) in “physchem” of under 0.01 mg/mL. The half-life in the data set “in vitro [2]” amounted to 42.4 min; in “in vitro [3]”, 37.3 min. Also, the hepatocyte CLint in “in vitro [2]” was 19.8 µL/min/1e6 cells; in the data set “in vitro [3]”, 25. Moreover, testing at 30 µM against hERG gave an inhibition of 45%.
On to `O=C(O)CN1C(=O)/C(=C/c2ccc(-c3cccs3)s2)SC1=S` [Compound 66, (Z)-2-(4-oxo-5-((5-(thiophen-2-yl)thiophen-2-yl)methylene)-2-thioxothiazolidin-3-yl)acetic acid], for which the “Pampa (d) permeability class” value was “Med”. The IC50 at lethal factor (LF) (setting [7]) stood at 2.3 µM. Besides, the “Cytox. (c) Cytotoxicity” value with HepG2 cells was “Nontoxic up to 100 μM”. For the same compound, the “Met. Stab. t1/2 (k)” value in data set [5] is “Degraded”. In [1], the “Plasma Stab. T = 30 min (l)” value came out at 90%. Further, in data set [6], the “Liver S9 Stab t1/2 (m)” value is recorded as “Degraded”. This compound returned a kinetic solubility in “physchem” of under 0.01 mg/mL. At hERG, the inhibition at 30 µM was 29%. For the same compound, the IC50 against human CYP2C9 is over 100 µM.
For `CNC(=O)[C@H](Cc1c[nH]c2ccccc12)NC(=O)[C@@H](CC(=O)NO)CC(C)C` [GM6001], the Ki at LF metalloproteinase was about 5 µM.
